Results as given in patent US10632169B2, “Methods of using GM604 in modulating ALS disease biomarkers leading to prognosis and therapeutic treatment for ALS disease” (Genervon Biopharmaceuticals, LLC, priority 2015, dated 2020).
Residues, ends and D or L forms follow the SMILES beside them.

What was measured:
surviving motor neurons = settings: in vivo administration; blocked by anti-MNTF1 monoclonal antibody; cited from earlier work
[1] = tested on: anterior horn motor neurons isolated from rat lumbar spinal cord explants; settings: naturally occurring and recombinant MNTF1; U.S. Pat. No. 6,309,877; cited from earlier work
[2] = shown in U.S. Pat. No. 8,673,852; cited from earlier work
[3] = GALS-C compassionate use, clinical observations; assay type: in vivo, human; settings: during the GALS-C trial
Text: GALS Compassionate Use (GALS-C) A ALS patient was first diagnosed with the disease in Q1 2005 and by Q3 2008 was quadriplegic and on a ventilator. The FDA approved a compassionate-use application of the MNTF6mer known as GM604 for this patient (IND #120052) using a protocol that followed the Phase 2A trial. This program was thus dubbed GALS-C. GALS-C Study Design
8. Exploratory clinical outcome measures will include the rate of decline of the ALS Functional Rating Scale Revised (ALSFRS-R), Forced Vital Capacity (FVC), stabilization or improvement in any clonus or spasticity symptoms, speech, swallowing, drooling, lingual/oral muscle, improved time off vent (self-breathing) and any movement or increase movement of any muscle groups. To estimate the participant's rate of progression prior to treatment, an ALSFRS-R of 48 will be assumed at date of symptom onset. There will be 2 weeks of active treatment, followed by 10 weeks of assessment without active treatment.
This compassionate trial follows the similar protocol and same dosing regimen as in the Phase 2A ALS trial. […]
Since the compassionate patient was very advanced, the usual clinical evaluations such as ALS functional rating scale (ALSFRS), forced vital capacity (FVC), and muscle strength were not used. […] The initial CSF before dosing and the CSF sample after the 6th dose were collected and analyzed. […]

[4] = GALS-001 Phase 2A trial, safety and tolerability; assay type: in vivo, human
Description: A total of twelve patients were enrolled in the ALS Phase 2A study. Six subjects enrolled at Site 1 and six subjects enrolled at Site 2. Dosing was by slow bolus intravenous administration, once a day for 3 times a week for 2 weeks. Eight patients were randomized to receive 320 mg GM604 per dose and four patients to receive placebo. Our inclusion/exclusion criteria required the ALS patients in the Phase 2A trial to be “definite” ALS sufferers according to El Escorial criteria (i.e., the disease progression must involve upper and lower motoneuron and the bulbar region) who had experienced disease onset within 24 months prior to the beginning of the trial. The goal is to enroll fast progressing patients. Our dosing regimen was delivered via intravenous bolus dosing three times a week (Monday, Wednesday, Friday) for two consecutive weeks, for a total of 6 doses. There was no dosing after the two weeks' treatment, and the patients were followed and evaluated for the next ten weeks. The clinical data for the ALSFRS-R, FVC, TUG, and the Grip Strength and HHD were measured at Baseline, Week 2, Week 6, and Week 12.
1. Safety and tolerability were evaluated based on the results of adverse events, vital signs, electrocardiography (ECG) measurements, physical and neurological examinations, safety laboratory monitoring, and hypersensitivity and injection site reactions.

Row | Compound | Percentage of surviving motor neurons vs untreated controls (surviving motor neurons) | Survival in vitro of anterior horn motor neurons [1] | Blood brain barrier penetration [2] | Adverse side effects [3] | Headache, GM604-treated patients ([4]; 2 patients of 8) [%] | Puncture site pain, GM604-treated patients ([4]; 3 patients of 8) [%] | Falls, GM604-treated patients ([4]; 4 patients of 8) [%] | Patients with at least 1 Treatment-emergent adverse event (TEAE) ([4]; GM604 treatment group, placebo 4 out of 4) | Grade 1 hypersensitivity reactions ([4]; Visit 5, placebo 1 patient) [patient] | Clinical laboratory tests, hematology, urinalysis, ECGs, vital signs, physical and neurological findings vs placebo ([4]; changes over time) | QT or QTcB result ([4]; no GM604 patient above this value) [ms] | Rash, GM604-treated patients ([4]; of 8) [patients] | Serious adverse events (SAE) ([4]; patient 0203, shortness of breath, judged unrelated to the investigational product) | Deaths or withdrawals due to adverse events ([4]; whole study)
1 | MNTF1: motoneuronotrophic factor isolated from rat muscle tissues; recombinant MNTF1-F6 encodes a 33 amino acid sequence (SEQ ID NO:1) (LGTFWGDTLNCWMLSAFSRYARCLAEGHDGPTQ) | markedly higher percentage of surviving motor neurons | selectively enhance the survival | – | – | – | – | – | – | – | – | – | – | – | –
2 | C[C@H](NC(=O)[C@H](Cc1ccc(O)cc1)NC(=O)[C@H](CCCNC(=N)N)NC(=O)[C@H](CO)NC(=O)[C@@H](N)Cc1ccccc1)C(=O)N[C@@H](CCCNC(=N)N)C(=O)O [GM604, FSRYAR] (H-FSRYAR-OH) | – | – | able to penetrate the blood brain barrier | no adverse side effects were noted | 25 | 37.5 | 50 | 5 out of 8 | 1 | no clinically meaningful differences | ≤ 450 | 2 | 1 | No deaths or withdrawals due to adverse events occurred
